Drawing on ChEMBL document CHEMBL3351462, “RORγt Modulators Are Potentially Useful for the Treatment of the Immune-Mediated Inflammatory Diseases” (ACS Med Chem Lett, 2014), this text covers IC50, inhibition and Kd for 4 compounds.

The structures appear in SMILES notation.

One test has as its system T-cell. The test can be described thus: Inhibition of IL17 production in human CD4-positive T cells incubated for 3 days. The format is functional, cell-based. The conditions noted are these: 72 h.
The target of test [1] is T1, Nuclear receptor ROR-gamma (Homo sapiens) (UniProt P51449).
T1 sequence (whole entry): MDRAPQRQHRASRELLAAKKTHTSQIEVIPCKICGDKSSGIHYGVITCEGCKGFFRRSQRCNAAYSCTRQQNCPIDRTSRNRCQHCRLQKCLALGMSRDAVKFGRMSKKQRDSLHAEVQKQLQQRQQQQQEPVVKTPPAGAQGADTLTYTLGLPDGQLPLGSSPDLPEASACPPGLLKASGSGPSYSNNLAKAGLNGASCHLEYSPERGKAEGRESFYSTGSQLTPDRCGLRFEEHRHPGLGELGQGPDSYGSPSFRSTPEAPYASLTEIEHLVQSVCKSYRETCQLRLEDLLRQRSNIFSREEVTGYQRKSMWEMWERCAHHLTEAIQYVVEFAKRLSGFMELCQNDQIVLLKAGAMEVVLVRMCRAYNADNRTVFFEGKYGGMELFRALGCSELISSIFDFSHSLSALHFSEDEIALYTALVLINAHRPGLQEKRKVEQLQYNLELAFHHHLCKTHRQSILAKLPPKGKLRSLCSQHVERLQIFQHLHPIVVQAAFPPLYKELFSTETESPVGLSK
The test can be described thus: Modulator activity at GAL4-tagged human RORgammat ligand binding domain expressed HEK293T cells by luciferase reporter gene assay relative to untreated control. It is filed as cell-based. The settings on record: HEK-293T, concentration not given here.

For test [2], the target named is T2, Nuclear receptor ROR-gamma (Homo sapiens, UniProt P51449).
T2 sequence (P51449 whole entry): T1 sequence (whole entry)
The test can be described thus: Modulator activity at GAL4-tagged human RORgammat ligand binding domain expressed HEK293T cells by luciferase reporter gene assay. It is filed as cell-based, HEK-293T.

For test [3], the target named is T2, Nuclear receptor ROR-gamma. The test can be described thus: Binding affinity to human wild type RORgammat ligand binding domain expressed in Escherichia coli by thermofluor assay.

As to `OC(c1ccncc1)(c1ccc2nc(Cl)c(Cc3ccc(Cl)cc3)c(Cl)c2c1)c1cncs1` (stereo not given), the figures for the IC50 (with T-cell; in test [2]) were 85 nM and 6.5 nM, respectively. Further, the inhibition (as a rule, the relative decrease from the control value, in per cent) in test [1] amounted to 85%. Further, the Kd – broadly, the concentration at which binding is half-saturated – in test [3] turned out to be 0.83 nM.

For the compound `Cn1cncc1C(O)(c1ccc(Cl)cc1)c1ccc2nc(Cl)c(Cc3ccccc3)c(Cl)c2c1` (stereo not given), inhibition with T-cell was half-maximal at 590 nM (IC50). For the same compound, in test [1], the inhibition came to 72%.

In the case of `COc1nc2ccc(C(O)(c3sc(C)nc3C)c3cnnn3C)cc2c(Cl)c1Cc1ccc(C(F)(F)F)cc1` (stereo not given), the IC50 (commonly the concentration that gives 50% inhibition) in the test on T-cell is 1.5 nM. In test [1], this compound returned an inhibition of 94%.

In the case of `Cn1cncc1C(O)(c1ccc(C(F)(F)F)nc1)c1ccc2nc(C#N)c(Cc3ccc(-n4cccn4)cc3)c(C#N)c2c1` (stereo not given), the IC50 in the test with T-cell was 25 nM. For the same compound, in test [1], the inhibition is 99%.
